From PubChem BioAssay AID1919016 (Molecular Pharmacology Branch, DTP, NCI, 2023)
Several values for one entry are separate records, joined by “and”; a condition that tells them apart may be missing. Identical values can stand only once. One block for each molecule: values may come before it.

Test system: NCI-H196 complex spheroid growth, percent test/control
Experiment: Anticancer human tumor NCI-H196 cell line growth inhibition [AhR];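 further: seven days of drug exposure starting three days after plating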;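 on viability, T/C: 100% = DMSO vehicle control wells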
Conditions: for viability, T/C: stronger effect = lower value
How it was run: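 Agents were dosed in half-log steps down from roughly clinical Cmax, or from 10 microM where Cmax was unknown, alone and with AhR antagonists. Read-out: percent test/control growth of tumor spheroids containing HUVEC and MSC stromal cells.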

[1] = curve of first compound, second compound 0.1 µM
[2] = curve of first compound, second compound 0.316 µM
[3] = curve of first compound, second compound 1 µM
[4] = curve of first compound, second compound 3.16 µM
[5] = curve of first compound, second compound 10 µM
[6] = second compound 0.1 µM, first compound 0.0316 µM
[7] = second compound 0.1 µM, first compound 0.1 µM
[8] = second compound 0.1 µM, first compound 0.316 µM
[9] = second compound 0.1 µM, first compound 1 µM
[10] = second compound 0.1 µM, first compound 3.16 µM
[11] = second compound 0.1 µM, first compound 10 µM
[12] = second compound 0.316 µM, first compound 0.0316 µM
[13] = second compound 0.316 µM, first compound 0.1 µM
[14] = second compound 0.316 µM, first compound 0.316 µM
[15] = second compound 0.316 µM, first compound 1 µM
[16] = second compound 0.316 µM, first compound 3.16 µM
[17] = second compound 0.316 µM, first compound 10 µM
[18] = second compound 1 µM, first compound 0.0316 µM
[19] = second compound 1 µM, first compound 0.1 µM
[20] = second compound 1 µM, first compound 0.316 µM
[21] = second compound 1 µM, first compound 1 µM
[22] = second compound 1 µM, first compound 3.16 µM
[23] = second compound 1 µM, first compound 10 µM
[24] = second compound 3.16 µM, first compound 0.0316 µM
[25] = second compound 3.16 µM, first compound 0.1 µM
[26] = second compound 3.16 µM, first compound 0.316 µM
[27] = second compound 3.16 µM, first compound 1 µM
[28] = second compound 3.16 µM, first compound 3.16 µM
[29] = second compound 3.16 µM, first compound 10 µM
[30] = second compound 10 µM, first compound 0.0316 µM
[31] = second compound 10 µM, first compound 0.1 µM
[32] = second compound 10 µM, first compound 0.316 µM
[33] = second compound 10 µM, first compound 1 µM
[34] = second compound 10 µM, first compound 3.16 µM
[35] = second compound 10 µM, first compound 10 µM

SMILES: COc1cc(Nc2ncc3c(n2)-c2ccc(Cl)cc2C(c2c(F)cccc2OC)=NC3)ccc1C(=O)O + Cc1ccccc1N=Nc1ccc(NC(=O)c2ccnn2C)c(C)c1
IC50 [1]: > 10 µM
IC50 [2]: > 10 µM
IC50 [3]: > 10 µM
IC50 [4]: > 10 µM
IC50 [5]: > 10 µM
viability, T/C [6]: 83.2%
viability, T/C [7]: 94.4%
viability, T/C [8]: 108%
viability, T/C [9]: 107%
viability, T/C [10]: 123%
viability, T/C [11]: 116%
viability, T/C [12]: 83.3%
viability, T/C [13]: 89.3%
viability, T/C [14]: 106%
viability, T/C [15]: 118%
viability, T/C [16]: 119%
viability, T/C [17]: 115%
viability, T/C [18]: 85.5%
viability, T/C [19]: 88.9%
viability, T/C [20]: 95.9%
viability, T/C [21]: 94.2%
viability, T/C [22]: 111%
viability, T/C [23]: 104%
viability, T/C [24]: 85.4%
viability, T/C [25]: 86%
viability, T/C [26]: 102%
viability, T/C [27]: 97.5%
viability, T/C [28]: 109%
viability, T/C [29]: 117%
viability, T/C [30]: 89.8%
viability, T/C [31]: 88.4%
viability, T/C [32]: 96.3%
viability, T/C [33]: 91.1%
viability, T/C [34]: 108%
viability, T/C [35]: 104%

SMILES: Cn1ncnc1C1c2n[nH]c(=O)c3cc(F)cc(c23)NC1c1ccc(F)cc1 (stereo not drawn)
viability, T/C (compound 0.000316 µM): 120% and 100% and 104%
viability, T/C (compound 0.001 µM): 104% and 99.4% and 98.5%
viability, T/C (compound 0.00316 µM): 114% and 102% and 99.6%
viability, T/C (compound 0.01 µM): 92.6% and 105% and 106%
viability, T/C (compound 0.0316 µM): 94.1% and 106% and 103%
viability, T/C (compound 0.1 µM): 114% and 102% and 104%
IC50 (curve of compound): > 0.1 µM

SMILES: CC1(C)CCC(CN2CCN(c3ccc(C(=O)NS(=O)(=O)c4ccc(NCC5CCOCC5)c([N+](=O)[O-])c4)c(Oc4cnc5[nH]ccc5c4)c3)CC2)=C(c2ccc(Cl)cc2)C1
viability, T/C (compound 0.0316 µM): 98.2% and 106% and 89%
viability, T/C (compound 0.1 µM): 110% and 103% and 101%
viability, T/C (compound 0.316 µM): 109% and 97.2% (2×)
viability, T/C (compound 1 µM): 109% and 103% and 96.6%
viability, T/C (compound 3.16 µM): 93.8% and 103% and 99.2%
viability, T/C (compound 10 µM): 104% and 72.5% and 89.6%
IC50 (curve of compound): > 10 µM

Second part, led by results:

IC50 [1]: 1.3 µM
IC50 [2]: 1.36 µM
IC50 [3]: 1.12 µM
IC50 [4]: 1.29 µM
IC50 [5]: 1.38 µM
SMILES: O=C(C=Cc1cccc(S(=O)(=O)Nc2ccccc2)c1)NO + Cc1cncc(-c2nc(NCCc3c[nH]c4ccccc34)c3ncn(C(C)C)c3n2)c1
viability, T/C [6]: 102%
viability, T/C [7]: 102%
viability, T/C [8]: 79.6%
viability, T/C [9]: 63.6%
viability, T/C [10]: 18.5%
viability, T/C [11]: 0.47%
viability, T/C [12]: 103%
viability, T/C [13]: 103%
viability, T/C [14]: 96.2%
viability, T/C [15]: 64.1%
viability, T/C [16]: 12.2%
viability, T/C [17]: 0.53%
viability, T/C [18]: 110%
viability, T/C [19]: 115%
viability, T/C [20]: 110%
viability, T/C [21]: 51.9%
viability, T/C [22]: 18.3%
viability, T/C [23]: 1.69%
viability, T/C [24]: 114%
viability, T/C [25]: 99.5%
viability, T/C [26]: 96.7%
viability, T/C [27]: 55.8%
viability, T/C [28]: 21.7%
viability, T/C [29]: 0.41%
viability, T/C [30]: 89.3%
viability, T/C [31]: 87.8%
viability, T/C [32]: 79.5%
viability, T/C [33]: 64.3%
viability, T/C [34]: 15.7%
viability, T/C [35]: 0.74%

IC50 (curve of compound): > 10 µM
SMILES: COc1ccc([C@@H](O)c2cc(-c3ncnc4cc(N5CCOCC5)ccc34)c(F)cc2Cl)nn1
viability, T/C (compound 0.0316 µM): 100% and 96% and 105%
viability, T/C (compound 0.1 µM): 97.1% and 92.7% and 93.5%
viability, T/C (compound 0.316 µM): 97% and 91.1% and 94.3%
viability, T/C (compound 1 µM): 89.2% and 84.2% and 89.9%
viability, T/C (compound 3.16 µM): 85.3% and 81.3% and 89.7%
viability, T/C (compound 10 µM): 77.3% and 69% and 71.9%

IC50 (curve of compound): > 0.3 µM
SMILES: CCc1c2c(nc3ccc(O)cc13)-c1cc3c(c(=O)n1C2)COC(=O)[C@]3(O)CC
viability, T/C (compound 0.000949 µM): 89.6% and 96.8% and 99.8%
viability, T/C (compound 0.003 µM): 98.3% (2×) and 108%
viability, T/C (compound 0.00949 µM): 96.8% and 95.2% and 99.4%
viability, T/C (compound 0.03 µM): 96.7% and 109% (2×)
viability, T/C (compound 0.0949 µM): 90.5% and 101% and 110%
viability, T/C (compound 0.3 µM): 96.5% and 83.3% and 95.6%

IC50 (compound alone, run of 08/22/2022): > 10 µM
SMILES: Cc1ccccc1N=Nc1ccc(NC(=O)c2ccnn2C)c(C)c1
viability, T/C (compound 0.1 µM): 96.4% [middle of 20 runs]
viability, T/C (compound 0.316 µM): 98% [middle of 20 runs]
viability, T/C (compound 3.16 µM): 95.8% [middle of 20 runs]
viability, T/C (compound 10 µM): 93.3% [middle of 20 runs]
